Assay results from ChEMBL document CHEMBL3400114, “The design, synthesis and biological evaluation of conformationally restricted 4-substituted-2,6-dimethylfuro[2,3-d]pyrimidines as multi-targeted receptor tyrosine kinase and microtubule inhibitors as potential antitumor agents” (Bioorg Med Chem, 2015).

Key:
[1] = molecular target: Vascular endothelial growth factor receptor 2 (Homo sapiens, UniProt P35968); format: cell-based, U-251
A-431 = experiment: Antiproliferative activity against human A431 cells after 48 hrs by sulforhodamine B assay; format: functional, cell-based; details: A-431, 48 h
[2] = molecular target: Epidermal growth factor receptor (Homo sapiens, UniProt P00533); format: cell-based, A-431
[3] = molecular target: Platelet-derived growth factor receptor beta (Homo sapiens, UniProt P09619); experiment: Inhibition of PDGFR-beta in human U251 cells compound pretreated for 60 min before PDGF-BB stimulation for 10 mins by phosphotyrosine ELISA cytoblot method; format: cell-based, U-251
[4] = Antiproliferative activity against human SKOV3-MDR1-M6/6 cells overexpressing wild type beta3 tubulin after 48 hrs by sulforhodamine B assay; format: functional, cell-based; details: SKOV3-MDR1-M6/6, 48 h
[5] = Induction of microtubule depolymerization in rat A10 cells after 18 hrs by indirect immunofluorescence assay; format: cell-based
[6] = Antiangiogenic activity in VEGF-165 and bFGF-stimulated chicken embryo chorioallantoic membrane assessed as inhibition of blood vessel formation after 40 hrs by microscopy; format: functional, tissue-based, Gallus gallus
MDA-MB-435 = experiment: Antiproliferative activity against human MDA-MB-435 cells after 48 hrs by sulforhodamine B assay; format: functional, cell-based; details: MDA-MB-435, 48 h
[7] = Antiproliferative activity against human SKOV3 cells overexpressing wild type beta3 tubulin after 48 hrs by sulforhodamine B assay; format: functional, cell-based; details: SK-OV-3, 48 h
HeLa = experiment: Antiproliferative activity against human HeLa cells overexpressing wild type beta3 tubulin after 48 hrs by sulforhodamine B assay; format: functional, cell-based

Vascular endothelial growth factor receptor 2, sequence (P35968 whole entry): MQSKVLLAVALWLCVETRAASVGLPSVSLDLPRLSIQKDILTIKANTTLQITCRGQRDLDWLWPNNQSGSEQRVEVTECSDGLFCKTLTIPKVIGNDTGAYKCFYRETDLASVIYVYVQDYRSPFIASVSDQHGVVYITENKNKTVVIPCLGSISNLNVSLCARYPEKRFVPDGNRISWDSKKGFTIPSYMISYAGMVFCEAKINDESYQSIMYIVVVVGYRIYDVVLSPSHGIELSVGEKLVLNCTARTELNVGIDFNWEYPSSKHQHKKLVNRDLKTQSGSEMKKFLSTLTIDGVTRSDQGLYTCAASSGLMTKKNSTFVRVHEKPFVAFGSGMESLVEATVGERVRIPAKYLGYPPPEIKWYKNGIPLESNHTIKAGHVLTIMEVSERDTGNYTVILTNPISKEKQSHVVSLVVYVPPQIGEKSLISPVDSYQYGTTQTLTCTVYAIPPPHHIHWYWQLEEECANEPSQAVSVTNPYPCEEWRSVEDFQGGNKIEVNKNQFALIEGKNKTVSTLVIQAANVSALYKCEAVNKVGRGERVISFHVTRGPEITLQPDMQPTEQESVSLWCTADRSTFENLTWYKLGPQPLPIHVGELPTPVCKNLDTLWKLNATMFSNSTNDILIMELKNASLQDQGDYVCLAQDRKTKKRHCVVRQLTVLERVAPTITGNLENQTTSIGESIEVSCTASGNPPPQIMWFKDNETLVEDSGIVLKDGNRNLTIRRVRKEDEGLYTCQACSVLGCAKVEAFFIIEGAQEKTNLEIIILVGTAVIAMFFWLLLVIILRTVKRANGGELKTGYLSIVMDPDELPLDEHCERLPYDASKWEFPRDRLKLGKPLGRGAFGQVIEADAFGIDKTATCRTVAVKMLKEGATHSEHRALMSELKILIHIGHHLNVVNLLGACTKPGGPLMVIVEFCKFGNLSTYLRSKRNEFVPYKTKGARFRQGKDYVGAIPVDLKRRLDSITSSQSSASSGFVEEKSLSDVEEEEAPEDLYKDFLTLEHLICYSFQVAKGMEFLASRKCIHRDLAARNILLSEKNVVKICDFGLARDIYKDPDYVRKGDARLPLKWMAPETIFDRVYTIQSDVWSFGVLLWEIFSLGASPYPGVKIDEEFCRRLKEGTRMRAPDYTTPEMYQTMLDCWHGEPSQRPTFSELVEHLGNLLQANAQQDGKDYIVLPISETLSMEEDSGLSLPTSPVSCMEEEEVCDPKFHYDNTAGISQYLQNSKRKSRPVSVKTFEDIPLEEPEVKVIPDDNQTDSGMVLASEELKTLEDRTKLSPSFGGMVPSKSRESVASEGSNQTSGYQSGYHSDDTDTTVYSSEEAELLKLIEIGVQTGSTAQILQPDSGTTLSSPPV
Platelet-derived growth factor receptor beta, sequence (P09619 whole entry): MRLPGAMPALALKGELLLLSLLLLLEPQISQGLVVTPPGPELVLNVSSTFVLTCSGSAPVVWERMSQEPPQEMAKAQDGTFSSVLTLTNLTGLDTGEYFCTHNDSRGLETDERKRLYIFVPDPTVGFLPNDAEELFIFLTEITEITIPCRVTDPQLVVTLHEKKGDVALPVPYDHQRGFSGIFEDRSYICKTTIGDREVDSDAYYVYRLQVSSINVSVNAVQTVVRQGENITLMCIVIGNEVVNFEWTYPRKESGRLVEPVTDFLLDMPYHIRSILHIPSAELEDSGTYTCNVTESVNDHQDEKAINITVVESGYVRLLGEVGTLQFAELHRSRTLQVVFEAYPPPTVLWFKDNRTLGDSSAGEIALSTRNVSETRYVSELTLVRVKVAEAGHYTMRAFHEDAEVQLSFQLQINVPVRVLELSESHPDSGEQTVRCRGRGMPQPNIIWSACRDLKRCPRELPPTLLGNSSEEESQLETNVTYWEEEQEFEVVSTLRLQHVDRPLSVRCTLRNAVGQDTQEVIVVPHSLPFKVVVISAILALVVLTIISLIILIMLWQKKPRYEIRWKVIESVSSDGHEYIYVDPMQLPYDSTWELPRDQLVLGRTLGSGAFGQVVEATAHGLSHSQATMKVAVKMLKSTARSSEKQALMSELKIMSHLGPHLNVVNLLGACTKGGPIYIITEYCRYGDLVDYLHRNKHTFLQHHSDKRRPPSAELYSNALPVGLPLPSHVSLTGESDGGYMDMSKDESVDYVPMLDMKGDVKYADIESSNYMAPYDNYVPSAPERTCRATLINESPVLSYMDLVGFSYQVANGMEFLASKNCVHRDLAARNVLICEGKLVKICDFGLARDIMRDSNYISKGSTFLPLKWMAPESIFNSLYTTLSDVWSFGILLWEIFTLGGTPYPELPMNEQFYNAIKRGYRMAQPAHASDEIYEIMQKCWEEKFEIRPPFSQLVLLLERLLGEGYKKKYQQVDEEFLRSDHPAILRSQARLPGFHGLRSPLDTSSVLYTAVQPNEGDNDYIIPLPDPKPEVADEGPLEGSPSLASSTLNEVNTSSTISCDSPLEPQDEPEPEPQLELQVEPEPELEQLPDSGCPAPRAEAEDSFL
Epidermal growth factor receptor, sequence (P00533 whole entry): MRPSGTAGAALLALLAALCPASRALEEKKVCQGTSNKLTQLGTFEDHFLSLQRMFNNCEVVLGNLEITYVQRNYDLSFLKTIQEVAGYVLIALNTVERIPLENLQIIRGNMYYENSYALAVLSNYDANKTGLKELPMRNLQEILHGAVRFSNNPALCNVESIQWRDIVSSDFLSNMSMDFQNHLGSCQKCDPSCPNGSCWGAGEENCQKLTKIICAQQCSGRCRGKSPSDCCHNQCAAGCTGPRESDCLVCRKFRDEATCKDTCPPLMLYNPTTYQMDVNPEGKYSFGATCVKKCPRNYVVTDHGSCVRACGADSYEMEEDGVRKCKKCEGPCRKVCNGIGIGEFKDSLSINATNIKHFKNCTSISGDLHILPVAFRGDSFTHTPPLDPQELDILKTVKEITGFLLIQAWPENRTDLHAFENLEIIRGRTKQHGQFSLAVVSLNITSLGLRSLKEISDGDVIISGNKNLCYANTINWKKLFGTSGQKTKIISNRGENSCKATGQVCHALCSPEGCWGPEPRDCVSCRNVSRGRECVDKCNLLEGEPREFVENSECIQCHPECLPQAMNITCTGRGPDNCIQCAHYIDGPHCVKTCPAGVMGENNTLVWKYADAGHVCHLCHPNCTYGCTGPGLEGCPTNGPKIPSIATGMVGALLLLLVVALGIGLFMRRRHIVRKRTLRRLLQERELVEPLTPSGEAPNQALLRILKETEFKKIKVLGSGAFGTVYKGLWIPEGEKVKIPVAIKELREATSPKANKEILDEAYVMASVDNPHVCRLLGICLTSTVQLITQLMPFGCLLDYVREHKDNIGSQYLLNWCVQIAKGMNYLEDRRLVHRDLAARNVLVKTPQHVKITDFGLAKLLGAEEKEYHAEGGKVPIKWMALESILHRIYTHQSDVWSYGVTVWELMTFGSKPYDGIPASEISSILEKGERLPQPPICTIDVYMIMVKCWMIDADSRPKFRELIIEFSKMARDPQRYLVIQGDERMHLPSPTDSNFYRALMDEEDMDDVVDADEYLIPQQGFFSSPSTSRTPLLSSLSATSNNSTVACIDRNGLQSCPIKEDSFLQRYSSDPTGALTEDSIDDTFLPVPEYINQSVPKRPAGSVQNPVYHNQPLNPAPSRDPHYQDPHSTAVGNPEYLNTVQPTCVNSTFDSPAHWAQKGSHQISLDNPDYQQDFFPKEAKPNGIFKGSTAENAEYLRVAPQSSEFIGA

| Compound | IC50 [1] [µM] | IC50 (A-431) [µM] | IC50 [3] [µM] | EC50 [5] [µM] | IC50 [6] [µM] | also measured |
| --- | --- | --- | --- | --- | --- | --- |
| CCOc1ccc(N(C)c2nc(C)nc3oc(C)cc23)cc1 | 0.121 | 0.0929 | 0.132 |  |  | IC50 [2]: > 0.5 µM; IC50 [4]: 0.0308 µM |
| COc1ccc(N(C)c2nc(C)nc3oc(C)cc23)c(OC)c1 | 0.0323 | 0.0171 | 0.0404 |  |  |  |
| COc1ccc2c(c1)CCN2c1nc(C)nc2oc(C)cc12 |  | 0.0422 |  | > 10 |  |  |
| COc1ccc2c(ccn2-c2nc(C)nc3oc(C)cc23)c1 |  | > 0.3 |  | > 10 | > 300 |  |
| CC(=O)O[C@H]1C(=O)[C@@]2(C)[C@H]([C@H](OC(=O)c3ccccc3)[C@]3(O)C[C@H](OC(=O)[C@H](O)[C@@H](NC(=O)c4ccccc4)c4ccccc4)C(C)=C1C3(C)C)[C@]1(OC(C)=O)CO[C@@H]1C[C@@H]2O [PACLITAXEL] |  |  |  |  |  | IC50 (MDA-MB-435): 0.0033 µM; IC50 [7]: 0.0063 µM; IC50 (HeLa): 0.0329 µM |
| COc1cc(N(C)c2nc(C)nc3oc(C)cc23)cc(OC)c1OC |  | > 0.3 |  | > 10 | > 300 |  |
